Measured values reported in patent US5340818A, “Methods and compositions for inhibiting tumor cell growth” (priority 1993, dated 1994).
Several values for one entry are separate records, joined by “and”; a condition that tells them apart may be missing. Equal entries are not always repeated.

Columns and labels:
B82 leukemia = conditions: ip, 37.5 × 1 × 7 mg/kg/day; cited from earlier work
C1498 leukemia = conditions: ip, 28 × 1 × 10 mg/kg/day; cited from earlier work
P1534 leukemia = conditions: ip, 30 × 1 × 10 mg/kg/day; cited from earlier work
L5178Y leukemia = conditions: ip, 28 × 1 × 10 mg/kg/day; cited from earlier work
AKR leukemia = conditions: ip, 28 × 1 × 10 mg/kg/day; cited from earlier work
Ehrlich ascites = conditions: ip, 30 × 1 × 10 mg/kg/day; cited from earlier work
Sarcoma 180 = conditions: ip, 30 × 1 × 10 mg/kg/day; cited from earlier work
Mecca lymphosarcoma = conditions: ip, 30 × 1 × 10 mg/kg/day; cited from earlier work
[1] = system: Ridgeway osteogenic sarcoma; conditions: ip, 48 × 1 × 9 mg/kg/day; cited from earlier work
X5563 myeloma = conditions: ip, 30 × 1 × 8 mg/kg/day; cited from earlier work
Adrenocarcinoma 755 = conditions: ip, 30 × 1 × 10 mg/kg/day; cited from earlier work
Shionogi carcinoma 115 = conditions: ip, 36 × 1 × 9 mg/kg/day; cited from earlier work
L5178Y cells = conditions: cultured L5178Y cells; cited from earlier work
DNA = conditions: cited from earlier work
L1210/0 cells = test: Cross-resistance studies: growth inhibition of doxorubicin-sensitive L1210/0 cells; format: cell-based; conditions: L1210/0 (doxorubicin sensitive)
L1210/Dx cells = test: Cross-resistance studies: growth inhibition of doxorubicin-resistant L1210/Dx cells; format: cell-based
BREI = test: Survival time evaluation, BREI (ip) in BDF1 mice; format: in vivo, mouse; design: Survival Time, individual mice / AST: unit not given here; conditions: for AST / Day 7 AWC / N/T (15 day survivors/total mice) / Survival Time, individual mice / % ILS: day 1, QDX4; for % ILS: 25% or greater indicates activity
Description: 0.2 ML BREI (ip) ca. 10 6 cells IN BDF1 (FEMALE) 19-21 g
DILUENT - COCKTAIL DIL 1:10 dextrose
SCHEDULE - DAY 1, QDX4 bid (ip) DAY 1, QDX4 per os

L1210 leukemia = L1210 leukemia survival time evaluation in BDF1 mice; conditions: for Day 6 AWC / MST / N/T (nine day survivors/total mice) / Survival Time, individual mice / % ILS (increase in lifespan): day 1, QDX4 ip; for % ILS (increase in lifespan): 25% or greater indicates activity

For `COc1cc2c(c3c1c(=O)c1ccccc1n3C)C=CC(C)(C)O2` [Compound 1, Acronycine], which Percent activity (B82 leukemia) is on record?
The Percent activity was 61%.

What about the Percent activity (C1498 leukemia) of the same compound?
The Percent activity was 79(7) Percent.

And the Percent activity (P1534 leukemia)?
The Percent activity was 0%.

And the Percent activity (L5178Y leukemia)?
Its Percent activity is 62%.

What about the Percent activity (AKR leukemia) of the same compound?
The Percent activity was 78(5) Percent.

And the Percent activity (Ehrlich ascites)?
Its Percent activity is 0(1) Percent.

What about the Percent activity (Sarcoma 180) of the same compound?
The Percent activity was 40(9) Percent.

And the Percent activity (Mecca lymphosarcoma)?
The Percent activity was 63(7) Percent.

What about the Percent activity [1] of the same compound?
Its Percent activity is 100(10) Percent.

What about the Percent activity (X5563 myeloma) of the same compound?
Its Percent activity is 100(8) Percent.

And the Percent activity (Adrenocarcinoma 755)?
Its Percent activity is 40(10) Percent.

What about the Percent activity (Shionogi carcinoma 115) of the same compound?
The Percent activity was 100(7) Percent.

And the “inhibition of incorporation of extracellular nucleosides into DNA and RNA, in words” value (L5178Y cells)?
The value was “inhibit the incorporation of extracellular nuclosides into the DNA and RNA”.

And the “interaction with DNA, in words” value (DNA)?
The value was “did not interact with DNA”.

For `COc1c(OC)c(OC)c2c(c1O)c(=O)c1ccc(O)c(OC)c1n2C` [Compound 31, Glyfoline], which IC50 (L1210/0 cells) is on record?
Its IC50 is 2090 nM.

What about the “(IC50) 0/(IC50) Dx” value (L1210/Dx cells; L1210/0 and L1210/Dx) of the same compound?
Its value is 1.58.

And the IC50 (L1210/Dx cells; Mus musculus, L1210/Dx (doxorubicin resistant))?
Its IC50 is 3310 nM.

And the AST (BREI; 100 mg/kg bid ip)?
The AST was 14.2.

What about the “Day 7 AWC” value (BREI; 100 mg/kg bid ip) of the same compound?
The value was “+1.0 g”.

What about the “N/T (15 day survivors/total mice)” value (BREI; 100 mg/kg bid ip) of the same compound?
The value was 0/5.

And the “Survival Time, individual mice” value (BREI; 100 mg/kg bid ip)?
Its value is 13 and 14 and 17.

What about the “% ILS” value (BREI; 100 mg/kg bid ip) of the same compound?
Its value is 18%.

And the AST (BREI; 500 mg/kg p.o.)?
The AST was greater than 19.

What about the “Day 7 AWC” value (BREI; 500 mg/kg p.o.) of the same compound?
Its value is “+0.8 g”.

And the “N/T (15 day survivors/total mice)” value (BREI; 500 mg/kg p.o.)?
Its value is 1/5.

What about the “Survival Time, individual mice” value (BREI; 500 mg/kg p.o.) of the same compound?
Its value is 13 and 14 and 15 and > 40.

And the “% ILS” value (BREI; 500 mg/kg p.o.)?
Its value is greater than 62%.

What about the “tumorfree survival (one mouse)” value (BREI; oral route) of the same compound?
Its value is greater than 40 days.

What about the “Day 6 AWC” value (L1210 leukemia; 6.25 mg/kg) of the same compound?
Its value is “+1.8 g”.

And the MST (L1210 leukemia; 6.25 mg/kg)?
Its MST is 7.0.

What about the “N/T (nine day survivors/total mice)” value (L1210 leukemia; 6.25 mg/kg) of the same compound?
The value was 0/2.

What about the “Survival Time, individual mice” value (L1210 leukemia; 6.25 mg/kg) of the same compound?
Its value is 7.

And the “% ILS (increase in lifespan)” value (L1210 leukemia; 6.25 mg/kg)?
Its value is 0%.

And the “Day 6 AWC” value (L1210 leukemia; 12.5 mg/kg)?
Its value is “+2.0 g”.

And the MST (L1210 leukemia; 12.5 mg/kg)?
Its MST is 8.0.

And the “N/T (nine day survivors/total mice)” value (L1210 leukemia; 12.5 mg/kg)?
The value was 0/2.

What about the “Survival Time, individual mice” value (L1210 leukemia; 12.5 mg/kg) of the same compound?
The value was 8.

And the “% ILS (increase in lifespan)” value (L1210 leukemia; 12.5 mg/kg)?
Its value is 14%.

And the “antileukemic activity, in words” value (L1210 leukemia; L1210, BDF mice, low doses, ip)?
Its value is “some activity”.
